Measured values reported in patent US20170121344A1 (Siga Technologies, Inc., priority 2009, published 2017).
Where two headings read alike, the source gives them in different places.

Assays:
DENV-1 = test: Viral yield assay against DENV-1 in Vero cells; type: cell-based; conditions: Dengue virus, DENV1, viral yield assay
How it was run: (§1)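 Infect Vero cells with virus (MOI 0.1), add compound or DMSO, incubate at 37° C, collect progeny at 48 hours post infection, then titrate on Vero cells to obtain EC50.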

DENV-3 = test: Viral yield assay against DENV-3 in Vero cells; type: cell-based; conditions: Dengue virus, DENV3, viral yield assay
How it was run: as §1

[1] = tested on: Dengue-2 (Strain New Guinea C); test: Viral yield assay against Dengue-2 in Vero cells; type: cell-based, Dengue virus; conditions: Dengue virus, read-out: Activity (EC50 in μM) DENV-2
How it was run: as §1

DENV-4 = test: Viral yield assay against DENV-4 in Vero cells; type: cell-based; conditions: Dengue virus, DENV4, viral yield assay
How it was run: as §1

[2] = DENV2, viral yield assay, Vero cells, MOI 0.1, 48 hours post infection

For `COc1cccc(-c2ccc3c(N)c(C(=O)Nc4ccc(Cl)c(C(F)(F)F)c4)sc3n2)c1` [Compound 498, 3-amino-N-[4-chloro-3-(trifluoromethyl)phenyl]-6-(3-methoxyphenyl)thieno [2,3-b]pyridine-2-carboxamide], the EC50 (DENV-1) was under 5 µM, the EC50 (DENV-3) was under 5 µM and the EC50 [1, 2] was under 5 µM. For the same molecule, the EC50 (DENV-4) was under 5 µM.

`COc1ccc(NC(=O)c2sc3nc(-c4cccc(OC)c4)ccc3c2N)cc1` [Compound 506, 3-amino-6-(3-methoxyphenyl)-N-(4-methoxyphenyl)thieno[2,3-b]pyridine-2-carboxamide] was tested, and the EC50 (DENV-1) was under 5 µM, the EC50 (DENV-3) was under 5 µM and the EC50 [1, 2] was under 5 µM. The EC50 (DENV-4) was under 5 µM.

In the case of `COc1cccc(-c2ccc3c(N)c(C(=O)Nc4ccc(OC)cc4C)sc3n2)c1` [Compound 507, 3-amino-N-(4-methoxy-2-methyl-phenyl)-6-(3-methoxyphenyl)thieno[2,3-b] pyridine-2-carboxamide], the EC50 (DENV-1) is reported as under 5 µM, the EC50 (DENV-3) is reported as under 5 µM and the EC50 [1, 2] is reported as under 5 µM. The EC50 (DENV-4) was under 5 µM.

With `COc1cccc(-c2ccc3c(N)c(C(=O)Nc4ccc(F)cc4)sc3n2)c1` [Compound 510, 3-amino-N-(4-fluorophenyl)-6-(3-methoxyphenyl)thieno[2,3-b]pyridine-2-carboxamide] the EC50 (DENV-1) was under 5 µM, the EC50 (DENV-3) was under 5 µM and the EC50 ([1]; DENV2, Vero, 48 h) was under 5 µM. For the same molecule, the EC50 (DENV-4) was under 5 µM.

`COc1cccc(-c2ccc3c(N)c(C(=O)Nc4ccc(OC)cc4OC)sc3n2)c1` [Compound 512, 3-amino-N-(2,4-dimethoxyphenyl)-6-(3-methoxyphenyl)thieno[2,3-b]pyridine-2-carboxamide] gave an EC50 (DENV-1) of under 5 µM, an EC50 (DENV-3) of under 5 µM and an EC50 [1, 2] of under 5 µM. It also gave an EC50 (DENV-4) of under 5 µM.

Work on `Cc1ccc(NC(=O)c2sc3nc(-c4ccc5c(c4)OCO5)ccc3c2N)c(Br)c1` [Compound 514, 3-amino-6-(1,3-benzodioxol-5-yl)-N-(2-bromo-4-methyl-phenyl)thieno[2,3-b] pyridine-2-carboxamide] yielded an EC50 (DENV-1) of under 5 µM, an EC50 (DENV-3) of under 5 µM and an EC50 [1, 2] of under 5 µM. It also gave an EC50 (DENV-4) of under 5 µM.

`COc1cccc(-c2ccc3c(N)c(C(=O)Nc4ccccc4Oc4ccccc4)sc3n2)c1` [Compound 522, 3-amino-6-(3-methoxyphenyl)-N-(2-phenoxyphenyl)thieno[2,3-b]pyridine-2-carboxamide] was tested, and the EC50 (DENV-1) was under 5 µM, the EC50 (DENV-3) was under 5 µM and the EC50 [1, 2] was under 5 µM. It also gave an EC50 (DENV-4) of under 5 µM.

With `Cc1ccc(NC(=O)c2sc3nc(-c4ccc5c(c4)OCO5)ccc3c2N)cc1Cl` [Compound 529, 3-amino-6-(1,3-benzodioxol-5-yl)-N-(3-chloro-4-methyl-phenyl)thieno[2,3-b] pyridine-2-carboxamide] the EC50 (DENV-1) was under 5 µM, the EC50 (DENV-3) was under 5 µM and the EC50 [1, 2] was under 5 µM. It also gave an EC50 (DENV-4) of under 5 µM.

`COc1ccc(-c2ccc3c(N)c(C(=O)Nc4ccc(C)cc4C)sc3n2)cc1OC` [Compound 530, 3-amino-6-(3,4-dimethoxyphenyl)-N-(2,4-dimethylphenyl)thieno[2,3-b]pyridine-2-carboxamide] gave an EC50 (DENV-1) of under 5 µM, an EC50 (DENV-3) of under 5 µM and an EC50 [1, 2] of under 5 µM. It also gave an EC50 (DENV-4) of under 5 µM.

`COc1ccc(Cl)cc1NC(=O)c1sc2nc(-c3ccc(OC)c(OC)c3)ccc2c1N` [Compound 532, 3-amino-N-(5-chloro-2-methoxy-phenyl)-6-(3,4-dimethoxyphenyl)thieno[2,3-b] pyridine-2-carboxamide] gave an EC50 (DENV-1) of under 5 µM, an EC50 (DENV-3) of under 5 µM and an EC50 [1, 2] of under 5 µM. The EC50 (DENV-4) was under 5 µM.

`COc1ccc(-c2ccc3c(N)c(C(=O)Nc4ccc(C)c(F)c4)sc3n2)cc1OC` [Compound 533, 3-amino-6-(3,4-dimethoxyphenyl)-N-(3-fluoro-4-methyl-phenyl)thieno[2,3-b] pyridine-2-carboxamide] showed an EC50 (DENV-1) of under 5 µM, an EC50 (DENV-3) of under 5 µM and an EC50 [1, 2] of under 5 µM. It also gave an EC50 (DENV-4) of under 5 µM.

Molecule `COc1ccc(-c2ccc3c(N)c(C(=O)Nc4ccc(Cl)cc4F)sc3n2)cc1OC` [Compound 534, 3-amino-N-(4-chloro-2-fluoro-phenyl)-6-(3,4-dimethoxyphenyl)thieno[2,3-b] pyridine-2-carboxamide] has an EC50 (DENV-1) of under 5 µM, an EC50 (DENV-3) of under 5 µM and an EC50 [1, 2] of under 5 µM. The EC50 (DENV-4) was under 5 µM.

Work on `COc1ccc(NC(=O)c2sc3nc(-c4ccc(F)cc4)ccc3c2N)cc1` [Compound 535, 3-amino-6-(4-fluorophenyl)-N-(4-methoxyphenyl)thieno[2,3-b]pyridine-2-carboxamide] yielded an EC50 (DENV-1) of under 5 µM, an EC50 (DENV-3) of under 5 µM and an EC50 [1, 2] of under 5 µM. It also gave an EC50 (DENV-4) of under 5 µM.

Molecule `C=CCSc1ccc(NC(=O)c2sc3nc(-c4cccc(OC)c4)ccc3c2N)cc1` [Compound 542, N-(4-allylsulfanylphenyl)-3-amino-6-(3-methoxyphenyl)thieno[2,3-b]pyridine-2-carboxamide] has an EC50 (DENV-1) of under 5 µM, an EC50 (DENV-3) of under 5 µM and an EC50 [1, 2] of under 5 µM. The EC50 (DENV-4) was under 5 µM.

For `COc1cccc(-c2ccc3c(N)c(C(=O)Nc4cccc(Cl)c4C)sc3n2)c1` [Compound 543, 3-amino-N-(3-chloro-2-methyl-phenyl)-6-(3-methoxyphenyl)thieno[2,3-b] pyridine-2-carboxamide], the EC50 (DENV-1) was under 5 µM, the EC50 (DENV-3) was under 5 µM and the EC50 [1, 2] was under 5 µM. The EC50 (DENV-4) was under 5 µM.

`COc1cccc(-c2ccc3c(N)c(C(=O)Nc4ccc(C)c(C)c4)sc3n2)c1` [Compound 546, 3-amino-N-(3,4-dimethylphenyl)-6-(3-methoxyphenyl)thieno[2,3-b]pyridine-2-carboxamide] gave an EC50 (DENV-1) of under 5 µM, an EC50 (DENV-3) of under 5 µM and an EC50 [1, 2] of under 5 µM. The EC50 (DENV-4) was under 5 µM.

In the case of `COc1cccc(-c2ccc3c(N)c(C(=O)Nc4cccc(C)c4)sc3n2)c1` [Compound 547, 3-amino-6-(3-mehtoxyphenyl)-N-(m-tolyl)thieno[2,3-b]pyridine-2-carboxamide], the EC50 (DENV-1) is reported as under 5 µM, the EC50 (DENV-3) is reported as under 5 µM and the EC50 [1, 2] is reported as under 5 µM. For the same molecule, the EC50 (DENV-4) was under 5 µM.

In the case of `COc1cccc(-c2ccc3c(N)c(C(=O)Nc4ccc(Br)c(C)c4)sc3n2)c1` [Compound 550, 3-amino-N-(4-bromo-3-methyl-phenyl)-6-(3-methoxyphenyl)thieno[2,3-b] pyridine-2-carboxamide], the EC50 (DENV-1) is reported as under 5 µM, the EC50 (DENV-3) is reported as under 5 µM and the EC50 [1, 2] is reported as under 5 µM. It also gave an EC50 (DENV-4) of under 5 µM.

Work on `CCC(C)c1ccc(NC(=O)c2sc3nc(-c4cccc(OC)c4)ccc3c2N)cc1` (stereo not shown) [Compound 555, 3-amino-6-(3-methoxyphenyl)-N-(4-sec-butylphenyl)thieno[2,3-b]pyridine-2-carboxamide] yielded an EC50 (DENV-1) of under 5 µM, an EC50 (DENV-3) of under 5 µM and an EC50 [1, 2] of under 5 µM. For the same molecule, the EC50 (DENV-4) was under 5 µM.

`COc1cccc(-c2ccc3c(N)c(C(=O)Nc4cccc(Cl)c4)sc3n2)c1` [Compound 561, 3-amino-N-(3-chlorophenyl)-6-(3-methoxyphenyl)thieno[2,3-b]pyridine-2-carboxamide] gave an EC50 (DENV-1) of under 5 µM, an EC50 (DENV-3) of under 5 µM and an EC50 [1, 2] of under 5 µM. It also gave an EC50 (DENV-4) of under 5 µM.

In the case of `COc1cccc(-c2ccc3c(N)c(C(=O)Nc4ccc(SC)cc4)sc3n2)c1` [Compound 566, 3-amino-6-(3-methoxyphenyl)-N-(4-methylsulfanylphenyl)thieno[2,3-b] pyridine-2-carboxamide], the EC50 (DENV-1) is reported as under 5 µM, the EC50 (DENV-3) is reported as under 5 µM and the EC50 [1, 2] is reported as under 5 µM. It also gave an EC50 (DENV-4) of under 5 µM.

`C=CCSc1nc2ccc(NC(=O)c3sc4nc(-c5cccc(OC)c5)ccc4c3N)cc2s1` [Compound 569, N-(2-allylsulfanyl-1,3-benzothiazol-6-yl)-3-amino-6-(3-methoxyphenyl)thieno [2,3-b]pyridine-2-carboxamide] showed an EC50 (DENV-1) of under 5 µM, an EC50 (DENV-3) of 5 to 25 µM and an EC50 [1, 2] of under 5 µM. It also gave an EC50 (DENV-4) of under 5 µM.
